From patent US20070148660A1, “Treatment of maladaptive substance use with H-ras antagonists” (The Regents of the University of California, priority 2005, published 2007)
Marks after values point to notes of the source that are not given here.

What was measured:
NMDAR = experiment: NMDAR-mediated EPSCs, whole-cell voltage clamp, hippocampal CA1; format: cell-based, mouse; details: for slowing of the weighted decay time compared to the control: 80 mM ethanol; for % Fast / τF / τS / τW: double exponential fit; for τW: 0 min 47.4 ms
Description: Electrophysiological recordings were performed in C57BL/6J mice ranging from P21 to P26. Briefly, mice were anesthetized with halothane and decapitated as per University of California, San Francisco animal care guidelines. Horizontal sections of the hippocampus ([…]) were prepared with a vibratome (Leica, Nussloch, Germany). Slices were placed in a holding chamber and allowed to recover for at least 1 hr before being placed in the recording chamber and superfused with aCSF saturated with 95% O2/5% CO2 and containing (in mM): 119 NaCl, 1.6 KCl, 1.0 NaH2PO4, 1.3 MgCl2 (for EPSCs) or 0.01 MgCl2 (for field excitatory postsynaptic potentials (fEPSPs)), 2.5 CaCl2, 26.2 NaHCO3 and 11 glucose. Picrotoxin (100 μM) was added to block gamma-aminobutyric acid-A (GABAA) receptor-mediated inhibitory synaptic transmission, and CNQX (for EPSCs) or NBQX (for fEPSPs) (10 μM) was added to block α-amino-3-hydroxy-5-methyl-4-isoxalepropionate (AMPA)/Kainate receptors. Cells were visualized using infrared differential interference contrast video microscopy.
Whole-cell voltage clamp-recordings were made using an Axopatch ID or a MultiClamp 700A amplifier (Axon Instruments, Union City, Calif.). Electrodes (3.5-5.0 MΩ) contained (in mM): 120 Cesium methansulfonate, 20 HEPES, 0.4 EGTA, 2.8 NaCl, 5 TEA-Cl, 2.5 MgATP, and 0.25 NaGTP (pH 7.2-7.3), buffer at 270-285 mOsm. Series resistance (10-30 MΩ) and input resistance were monitored on-line with a 4 mV depolarizing step (50 ms) given just after every afferent stimulus. Recordings from the CA1 region of the hippocampus were obtained with a bipolar stimulating electrode that was placed 100-300 μm rostral to the recording electrode and was used to stimulate excitatory afferents at 0.1 Hz. Neurons were voltage-clamped at +40 mV to evoke NMDAR-mediated EPSCs. At this potential, NMDARs have a maximal open probability and the Mg^2+ block is removed. EPSCs were filtered at 2 kHz, digitized at 5-10 kHz and collected on-line using Igor Pro software (Wavemetrics, Lake Oswego, Oreg.) or pClamp 9 (Axon Instruments, Union City, Calif.). NMDAR example traces were constructed by averaging 20 EPSCs (200 sec) elicited at +40 mV during baseline, ethanol application, drug application or drug application with ethanol. To calculate the decay time (τ), Igor Pro software was used to fit exponential decay curves to averaged NMDAR-mediated EPSCs using the formula: y=A1exp(−invTau1*x)+A2exp(−invTau2X).

Ras = Ras activity assay (Raf-1-Ras binding domain GST-agarose), hippocampal slices; format: cell-based, mouse; details: 100 mM ethanol, 15 min, hippocampal slices
Description: The treated hippocampal homogenates (250 μg) were incubated with […] of Raf-1-Ras binding domain GST-agarose for 45 min at 4° C. while rotating, as per manufacturer's instructions. […] Results were quantified by NIH Image 1.61.

[1] = system: GluR1 subunit of the AMPAR; details: 100 mM ethanol, 15 min, hippocampal slices
Description: (§1) Transverse hippocampal slices ([…]) were prepared from 10- to 12-week-old C57BL/6J mice. Slices were allowed to recover for 90 min in artificial cerebrospinal fluid (aCSF) saturated with 95% O2/5% CO2 containing (in mM): 126 NaCl, 1.2 KCl, 1.2 NaH2PO4, 1.2 MgCl2, 2.4 CaCl2, 18 NaHCO3, and 11 glucose. Following recovery, slices were treated with aCSF (control) or ethanol at room temperature, after which the slices were rinsed in cold aCSF, and used either for cross-linking experiments, for Ras activity assay, or for immunoprecipitation. In experiments using Tat-H-Ras DN or the Tat-peptide, the slices were pretreated with either aCSF (control) or 2 μM Tat-H-Ras DN or Tat-peptide for 2 hrs at room temperature, followed by ethanol treatments.
(§2) Cross-linking was performed as described previously (22), with minor modifications. Following treatment, the slices were placed in cold aCSF in the presence or absence of 2 mg/ml of the cross-linking reagent BS^3 for 45 min at 4° C. while shaking. Slices were then rinsed three times with cold aCSF containing 20 mM Tris (pH 7.6), followed by sonication in cold homogenization buffer (10% SDS, 10 mM EDTA, 100 mM Tris (pH 8.0), and protease and phosphatase inhibitor cocktails). The protein concentration was determined using the BCA assay, followed by SDS-PAGE and Western blot analysis. Data are expressed as ratio of normalized surface expressed or internalized receptors to the total receptor levels.
(§3) Proteins were separated by SDS-PAGE and blotted onto a nitrocellulose membrane. After blocking, the membranes were incubated with the specific primary antibody, followed by horseradish peroxidase-conjugated secondary antibody. Detection was obtained followed by enhanced chemiluminescent reaction (Amersham Biosciences), and processed using the STORM PhosphoImager (Amersham Biosciences). Results were quantified by NIH Image 1.61.

NR1 subunit of the NMDAR = details: 100 mM ethanol, 15 min, hippocampal slices
Description: as §1, §2, §3

NR2B subunit = details: 100 mM ethanol, 15 min, hippocampal slices
Description: as §1, §2, §3

[2] = 15 min exposure to ethanol (80 mM), n=6
[3] = 30 min exposure to ethanol (80 mM), n=6

CCO [ethanol]
inhibition of EPSCs at low ethanol concentration (NMDAR; 25 mM ethanol, n=18, data not shown): 24±6% | effect of ethanol on the remaining portion of the NMDAR EPSCs (NMDAR; 80 mM ethanol bath applied after NVP-AAM077 0.4 μM): did not alter | slowing of the weighted decay time compared to the control (NMDAR; after 15 min, n=6): 33±14% | slowing of the weighted decay time compared to the control (NMDAR; after 30 min, n=6): 70±29% | % Fast (NMDAR; [2]): 12.5 ± 3.1% | τF (NMDAR; [2]): 34.5 ± 2.1 ms | τS (NMDAR; [2]): 256.3 ± 51.8* ms | τW (NMDAR; [2]): 62.2 ± 10* ms | τW (NMDAR; 15 min exposure to ethanol (80 mM), n=6, listed as Ethanol): 62 ± 10 ms | % Fast (NMDAR; [3]): 112.6 ± 2.0% | τF (NMDAR; [3]): 42.4 ± 4.4* ms | τS (NMDAR; [3]): 354.0 ± 91.1 ms | τW (NMDAR; [3]): 77.8 ± 14.1* ms | τW (NMDAR; 30 min exposure to ethanol (80 mM), n=6, listed as Ethanol): 78 ± 14 ms | inhibition of NMDAR-mediated EPSCs (NMDAR; bath application of 80 mM ethanol, n=9, data not shown): 37±7% | further decrease in remaining current (NMDAR; bath application of ethanol in the presence of ifenprodil (3 μM)): 36% | total reduction of NMDAR EPSCs (NMDAR; ifenprodil (3 μM) plus ethanol, n=6): 73±7% | increase of Ras-GTP levels over the control (Ras): at least 2 fold | surface expression of the GluR1 subunit [1]: no change | surface expression of the NR1 subunit (NR1 subunit of the NMDAR): no change | membranal localization of the NR2B subunit (NR2B subunit): did not alter
